Source: ChEMBL document CHEMBL1139570, “Estrogen receptor ligands: design and synthesis of new 2-arylindene-1-ones” (Bioorg Med Chem Lett, 2005)

Legend:
Estrogen receptor = target: T1, Estrogen receptor (Homo sapiens, UniProt P03372)
T1 sequence (P03372 whole entry): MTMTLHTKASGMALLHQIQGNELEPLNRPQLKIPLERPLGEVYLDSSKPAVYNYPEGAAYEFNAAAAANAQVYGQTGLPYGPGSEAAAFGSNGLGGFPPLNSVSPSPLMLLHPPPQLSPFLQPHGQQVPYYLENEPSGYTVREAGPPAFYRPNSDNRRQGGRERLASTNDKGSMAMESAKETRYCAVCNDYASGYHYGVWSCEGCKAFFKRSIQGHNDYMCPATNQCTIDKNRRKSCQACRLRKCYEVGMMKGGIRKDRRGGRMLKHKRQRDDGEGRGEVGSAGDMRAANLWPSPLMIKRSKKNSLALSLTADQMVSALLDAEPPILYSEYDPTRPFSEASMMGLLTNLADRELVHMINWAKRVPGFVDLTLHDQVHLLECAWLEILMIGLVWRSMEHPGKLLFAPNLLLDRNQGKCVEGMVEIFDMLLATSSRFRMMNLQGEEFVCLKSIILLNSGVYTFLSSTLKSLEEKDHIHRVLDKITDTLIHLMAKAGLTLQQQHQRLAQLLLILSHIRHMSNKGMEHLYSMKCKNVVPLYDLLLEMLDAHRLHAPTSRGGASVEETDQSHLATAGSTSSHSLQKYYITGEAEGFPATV
Description: Inhibition of human estrogen receptor alpha

Estrogen receptor beta = Estrogen receptor beta (Homo sapiens, UniProt Q92731)
Estrogen receptor beta, sequence (Q92731 whole entry): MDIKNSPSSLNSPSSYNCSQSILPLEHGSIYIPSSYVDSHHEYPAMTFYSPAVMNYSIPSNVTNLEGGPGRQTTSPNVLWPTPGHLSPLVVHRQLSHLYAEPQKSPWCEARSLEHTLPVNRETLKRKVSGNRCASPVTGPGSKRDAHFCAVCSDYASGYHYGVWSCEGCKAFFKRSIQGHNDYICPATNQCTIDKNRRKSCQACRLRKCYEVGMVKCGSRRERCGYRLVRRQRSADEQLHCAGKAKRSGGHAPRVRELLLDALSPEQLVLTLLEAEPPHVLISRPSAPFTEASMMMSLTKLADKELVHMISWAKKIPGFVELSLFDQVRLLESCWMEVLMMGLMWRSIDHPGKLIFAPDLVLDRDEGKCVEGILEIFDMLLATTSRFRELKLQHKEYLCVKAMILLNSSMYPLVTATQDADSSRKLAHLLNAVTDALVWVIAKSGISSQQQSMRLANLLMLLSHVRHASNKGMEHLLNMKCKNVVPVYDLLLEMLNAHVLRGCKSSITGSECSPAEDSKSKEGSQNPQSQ
Description: Inhibition of human estrogen receptor beta

| Structure (SMILES) | IC50 (Estrogen receptor) | IC50 (Estrogen receptor beta) |
| --- | --- | --- |
| NC1=C(c2ccc(O)cc2)C(=O)c2cc(O)ccc21 | > 5000 nM | 1150 nM |
| COc1ccc2c(c1)C(Br)=C(c1ccc(O)cc1)C2=O | 1800 nM | 199 nM |
| CC/N=C1/C(c2ccc(O)cc2)=C(O)c2cc(O)cc(O)c21 | > 5000 nM | 2700 nM |
| O=C1C(c2ccc(O)cc2)=C(O)c2cc(O)cc(O)c21 | > 5000 nM |  |
| O=C1C(c2ccc(O)cc2)=C(O)c2ccc(O)cc21 | > 5000 nM |  |
| CC1=C(c2ccc(O)cc2)C(=O)c2c(O)cc(O)cc21 |  | 2.4 nM |

The remaining lines, values ahead:

| IC50 (Estrogen receptor) | IC50 (Estrogen receptor beta) | Structure (SMILES) |
| --- | --- | --- |
| 9 nM | 9 nM | O=C1C(c2ccc(O)cc2)=C(c2ccccc2)c2ccc(O)cc21 |
| 480 nM |  | CCSC1=C(c2ccc(O)cc2)C(=O)c2ccc(O)cc21 |
| 5.2 nM | 1.7 nM | O=C1C(c2ccc(O)cc2)=C(Br)c2cc(O)ccc21 |
| 580 nM | 150 nM | CCSC1=C(c2ccc(O)cc2)C(=O)c2cc(O)cc(O)c21 |
| 10 nM | 10 nM | O=C1C(c2ccc(O)cc2)=C(c2ccccc2)c2cc(O)ccc21 |
| 3.1 nM | 1.3 nM | CSC1=C(c2ccc(O)cc2)C(=O)c2ccc(O)cc21 |
